# Target: GST-tagged-Wee1 kinase (Homo sapiens, UniProt P30291)
# Test: Wee1 time-resolved fluorescence equilibrium binding assay (displacement of Oregon Green-labeled ATP-competitive kinase probe)
# Details: not given
# Method: Wee1 kinase was assayed using a time-resolved fluorescence equilibrium binding assay monitoring displacement of a rapidly reversible Oregon Green-labeled ATP-competitive kinase probe (N-(2-(2-(2-(4-(4-(5-chloro-4-(2-(1-hydroxycyclobutyl)thiazol-5-yl)-1H-pyrrolo[2,3-b]pyridin-2-yl)phenyl)piperazin-1-yl)ethoxy)ethoxy)ethyl)-2′,7′-difluoro-3′,6′-dihydroxy-3-oxo-3H-spiro[isobenzofuran-1,9′-xanthene]-5-carboxamide) by competitive Wee1 inhibitors.
# GST-tagged-Wee1 kinase, sequence (P30291 whole entry): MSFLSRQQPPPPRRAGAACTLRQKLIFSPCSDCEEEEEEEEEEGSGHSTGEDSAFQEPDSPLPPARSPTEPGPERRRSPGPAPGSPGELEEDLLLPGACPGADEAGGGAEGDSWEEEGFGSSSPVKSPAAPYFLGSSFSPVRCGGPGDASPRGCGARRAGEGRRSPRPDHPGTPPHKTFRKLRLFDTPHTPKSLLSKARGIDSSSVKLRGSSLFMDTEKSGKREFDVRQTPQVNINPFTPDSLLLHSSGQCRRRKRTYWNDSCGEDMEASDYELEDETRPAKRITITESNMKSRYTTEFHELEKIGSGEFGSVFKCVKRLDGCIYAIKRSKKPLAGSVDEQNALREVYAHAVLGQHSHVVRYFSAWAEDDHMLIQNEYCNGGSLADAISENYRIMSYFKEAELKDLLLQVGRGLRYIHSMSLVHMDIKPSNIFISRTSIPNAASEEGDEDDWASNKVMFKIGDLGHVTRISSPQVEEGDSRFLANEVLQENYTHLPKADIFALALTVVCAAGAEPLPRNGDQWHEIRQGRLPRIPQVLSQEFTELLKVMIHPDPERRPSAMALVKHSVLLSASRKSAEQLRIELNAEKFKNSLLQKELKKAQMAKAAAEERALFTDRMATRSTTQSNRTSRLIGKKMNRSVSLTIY
row,Molecule,Ki [nM]
1,"C=CCn1nc(C)c2nc(Nc3ccc(N4CCN(C)CC4)cc3)ncc2c1=O [Example 2, 6-allyl-8-methyl-2-{[4-(4-methylpiperazin-1-yl)phenyl]amino}pyrimido[4,5-d]pyridazin-5(6H)-one]",140
2,"CN1CCN(c2ccc(Nc3ncc4c(=O)[nH]nc(-c5ccccc5)c4n3)cc2)CC1 [Example 4, 2-{[4-(4-methylpiperazin-1-yl)phenyl]amino}-8-phenylpyrimido[4,5-d]pyridazin-5(6H)-one]",25
3,"CN1CCN(c2ccc(Nc3ncc4c(=O)n(C)nc(CCc5ccccc5)c4n3)cc2)CC1 [Example 6, 6-methyl-2-{[4-(4-methylpiperazin-1-yl)phenyl]amino}-8-(2-phenylethyl)pyrimido[4,5-d]pyridazin-5(6H)-one]",680
4,"CN1CCN(c2ccc(Nc3ncc4c(=O)n(CC(F)(F)F)nc(CCc5ccccc5)c4n3)cc2)CC1 [Example 10, 2-{[4-(4-methylpiperazin-1-yl)phenyl]amino}-8-(2-phenylethyl)-6-(2,2,2-trifluoroethyl)pyrimido[4,5-d]pyridazin-5(6H)-one]",> 3140
5,"CCCc1nn(C)c(=O)c2cnc(Nc3ccc(N4CCN(C)CC4)cc3)nc12 [Example 11, 6-methyl-2-{[4-(4-methylpiperazin-1-yl)phenyl]amino}-8-propylpyrimido[4,5-d]pyridazin-5(6H)-one]",730
6,"CN1CCN(c2ccc(Nc3ncc4c(=O)[nH]nc(C5CCCC5)c4n3)cc2)CC1 [Example 14, 8-cyclopentyl-2-{[4-(4-methylpiperazin-1-yl)phenyl]amino}pyrimido[4,5-d]pyridazin-5(6H)-one]",1100
7,"C=CCn1nc(C2CCCC2)c2nc(Nc3ccc(N4CCN(C)CC4)cc3)ncc2c1=O [Example 15, 6-allyl-8-cyclopentyl-2-{[4-(4-methylpiperazin-1-yl)phenyl]amino}pyrimido[4,5-d]pyridazin-5(6H)-one]",250
8,"C=CCn1nc(CCC)c2nc(Nc3ccc(N4CCN(C)CC4)cc3)ncc2c1=O [Example 16, 6-allyl-2-{[4-(4-methylpiperazin-1-yl)phenyl]amino}-8-propylpyrimido[4,5-d]pyridazin-5(6H)-one]",130
9,"CCCc1nn(-c2ccccc2)c(=O)c2cnc(Nc3ccc(N4CCN(C)CC4)cc3)nc12 [Example 17, 2-{[4-(4-methylpiperazin-1-yl)phenyl]amino}-6-phenyl-8-propylpyrimido[4,5-d]pyridazin-5(6H)-one]",36
10,"CCCc1nn(-c2ccccc2C)c(=O)c2cnc(Nc3ccc(N4CCN(C)CC4)cc3)nc12 [Example 18, 6-(2-methylphenyl)-2-{[4-(4-methylpiperazin-1-yl)phenyl]amino}-8-propylpyrimido[4,5-d]pyridazin-5(6H)-one]",4
11,C=CCn1nc(Cc2ccccc2)c2nc(Nc3ccc(N4CCN(C)CC4)cc3)ncc2c1=O [Example 22],700
12,"CCCc1nn(CC(F)(F)F)c(=O)c2cnc(Nc3ccc(N4CCN(C)CC4)cc3)nc12 [Example 23, 2-{[4-(4-methylpiperazin-1-yl)phenyl]amino}-8-propyl-6-(2,2,2-trifluoroethyl)pyrimido[4,5-d]pyridazin-5(6H)-one]",370
13,"CN1CCN(c2ccc(Nc3ncc4c(=O)n(-c5ccccc5Cl)nc(CCc5ccccc5)c4n3)cc2)CC1 [Example 24, 6-(2-chlorophenyl)-2-{[4-(4-methylpiperazin-1-yl)phenyl]amino}-8-(2-phenylethyl)pyrimido[4,5-d]pyridazin-5(6H)-one]",2
14,"Cc1ccccc1-n1nc(-c2ccccc2)c2nc(Nc3ccc(N4CCN(C)CC4)cc3)ncc2c1=O [Example 28, 6-(2-methylphenyl)-2-{[4-(4-methylpiperazin-1-yl)phenyl]amino}-8-phenylpyrimido[4,5-d]pyridazin-5(6H)-one]",0.8
15,"CN1CCN(c2ccc(Nc3ncc4c(=O)n(-c5ccccc5Cl)nc(-c5ccccc5)c4n3)cc2)CC1 [Example 29, 6-(2-chlorophenyl)-2-{[4-(4-methylpiperazin-1-yl)phenyl]amino}-8-phenylpyrimido[4,5-d]pyridazin-5(6H)-one]",< 1

# Now from value to molecule:
row,Ki [nM],Molecule
1,1900,"Cc1nn(C)c(=O)c2cnc(Nc3ccc(N4CCN(C)CC4)cc3)nc12 [Example 1, 6,8-dimethyl-2-{[4-(4-methylpiperazin-1-yl)phenyl]amino}pyrimido[4,5-d]pyridazin-5(6H)-one]"
2,620,"CN1CCN(c2ccc(Nc3ncc4c(=O)n(C)nc(C5CCCC5)c4n3)cc2)CC1 [Example 13, 8-cyclopentyl-6-methyl-2-{[4-(4-methylpiperazin-1-yl)phenyl]amino}pyrimido[4,5-d]pyridazin-5(6H)-one]"
3,370,"CN1CCN(c2ccc(Nc3ncc4c(=O)n(CCC#N)nc(CCc5ccccc5)c4n3)cc2)CC1 [Example 8, 3-[2-{[4-(4-methylpiperazin-1-yl)phenyl]amino}-5-oxo-8-(2-phenylethyl)pyrimido[4,5-d]pyridazin-6(5H)-yl]propanenitrile]"
4,350,"CCCc1nn(CCC#N)c(=O)c2cnc(Nc3ccc(N4CCN(C)CC4)cc3)nc12 [Example 21, 3-[2-{[4-(4-methylpiperazin-1-yl)phenyl]amino}-5-oxo-8-propylpyrimido[4,5-d]pyridazin-6(5H)-yl]propanenitrile]"
5,250,"C=CCn1nc(CCc2ccccc2)c2nc(Nc3ccc(N4CCN(C)CC4)cc3)ncc2c1=O [Example 7, 6-allyl-2-{[4-(4-methylpiperazin-1-yl)phenyl]amino}-8-(2-phenylethyl)pyrimido[4,5-d]pyridazin-5(6H)-one]"
6,180,"CN1CCN(c2ccc(Nc3ncc4c(=O)n(C)nc(-c5ccccc5)c4n3)cc2)CC1 [Example 3, 6-methyl-2-{[4-(4-methylpiperazin-1-yl)phenyl]amino}-8-phenylpyrimido[4,5-d]pyridazin-5(6H)-one]"
7,73,"CN1CCN(c2ccc(Nc3ncc4c(=O)n(-c5ccccc5)nc(Cc5ccccc5)c4n3)cc2)CC1 [Example 19, 8-benzyl-2-{[4-(4-methylpiperazin-1-yl)phenyl]amino}-6-phenylpyrimido[4,5-d]pyridazin-5(6H)-one]"
8,61,"CN1CCN(c2ccc(Nc3ncc4c(=O)n(-c5ccccc5)nc(CCc5ccccc5)c4n3)cc2)CC1 [Example 9, 2-{[4-(4-methylpiperazin-1-yl)phenyl]amino}-6-phenyl-8-(2-phenylethyl)pyrimido[4,5-d]pyridazin-5(6H)-one]"
9,19,"Cc1ccccc1-n1nc(Cc2ccccc2)c2nc(Nc3ccc(N4CCN(C)CC4)cc3)ncc2c1=O [Example 20, 8-benzyl-6-(2-methylphenyl)-2-{[4-(4-methylpiperazin-1-yl)phenyl]amino}pyrimido[4,5-d]pyridazin-5(6H)-one]"
10,12,"CN1CCN(c2ccc(Nc3ncc4c(=O)n(-c5ccccc5Cl)nc(Cc5ccccc5)c4n3)cc2)CC1 [Example 26, 8-benzyl-6-(2-chlorophenyl)-2-{[4-(4-methylpiperazin-1-yl)phenyl]amino}pyrimido[4,5-d]pyridazin-5(6H)-one]"
11,6,"C=CCn1nc(-c2ccccc2)c2nc(Nc3ccc(N4CCN(C)CC4)cc3)ncc2c1=O [Example 5, 6-allyl-2-{[4-(4-methylpiperazin-1-yl)phenyl]amino}-8-phenylpyrimido[4,5-d]pyridazin-5(6H)-one]"
12,6,"Cc1ccccc1-n1nc(CCc2ccccc2)c2nc(Nc3ccc(N4CCN(C)CC4)cc3)ncc2c1=O [Example 12, 6-(2-methylphenyl)-2-{[4-(4-methylpiperazin-1-yl)phenyl]amino}-8-(2-phenylethyl)pyrimido[4,5-d]pyridazin-5(6H)-one]"
13,2,"CN1CCN(c2ccc(Nc3ncc4c(=O)n(-c5ccccc5)nc(-c5ccccc5)c4n3)cc2)CC1 [Example 27, 2-{[4-(4-methylpiperazin-1-yl)phenyl]amino}-6,8-diphenylpyrimido[4,5-d]pyridazin-5(6H)-one]"
14,1,"CCCc1nn(-c2ccccc2Cl)c(=O)c2cnc(Nc3ccc(N4CCN(C)CC4)cc3)nc12 [Example 25, 6-(2-chlorophenyl)-2-{[4-(4-methylpiperazin-1-yl)phenyl]amino}-8-propylpyrimido[4,5-d]pyridazin-5(6H)-one]"

# Same assay, conditions: read-out: Wee-1 inhibition Ki
row,Molecule,Ki [nM]
1,"3-{[6-(2,6-dichlorophenyl)-8-methyl-5-oxo-5,6-dihydropyrimido[4,5-d]pyridazin-2-yl]amino}benzoic acid [Example 521]",97
2,"6-(2,6-dichlorocyclohexa-1,5-dien-1-yl)-2-[(3-{[2-(dimethylamino)ethyl]amino}phenyl)amino]-8-methylpyrimido[4,5-d]pyridazin-5(6H)-one [Example 514]",0.41
3,"6-(2,6-dichlorophenyl)-8-(3-furyl)-2-{[4-(4-methylpiperazin-1-yl)phenyl]amino}pyrimido[4,5-d]pyridazin-5(6H)-one [Example 95]",0.1
4,"6-(2-chlorophenyl)-2-{[4-(4-isopropylpiperazin-1-yl)-3-methylphenyl]amino}-8-(2-thienyl)pyrimido[4,5-d]pyridazin-5(6H)-one [Example 166]",0.8
5,"6-(2-chlorophenyl)-2-{[4-(4-methylpiperazin-1-yl)phenyl]amino}-8-(1-methyl-1H-pyrazol-4-yl)pyrimido[4,5-d]pyridazin-5(6H)-one [Example 86]",1
6,"6-(2-chlorophenyl)-8-(2-furyl)-2-{[4-(4-methylpiperazin-1-yl)phenyl]amino}pyrimido[4,5-d]pyridazin-5(6H)-one [Example 33]",0.3
7,"6-(2-chlorophenyl)-8-(6-chloropyridin-2-yl)-2-{[4-(4-methylpiperazin-1-yl)phenyl]amino}pyrimido[4,5-d]pyridazin-5(6H)-one [Example 77]",0.7
8,"8-(6-chloropyridin-2-yl)-6-(2,6-dichlorophenyl)-2-{[4-(4-methylpiperazin-1-yl)phenyl]amino}pyrimido[4,5-d]pyridazin-5(6H)-one [Example 75]",0.08

# Source: patent US8796289B2 (AbbVie Inc., priority 2011, dated 2014)
